From patent US6888003B2, “Method for producing 7-(pyrazole-3-yl) benzoxazoles” (BASF Aktiengesellschaft, priority 2000, dated 2005)

Columns and labels:
Assay in all cases: Greenhouse herbicidal post-emergence test
AMARE = type: in vivo, velvet leaf; details: application rate 31.3 g/ha
Source text: (§1) The culture containers used were plastic pots containing loamy sand with approximately 3.0% of humus as the substrate. The seeds of the test plants were sown separately for each species. For the post-emergence treatment, the test plants were first grown to a height of 3 to 15 cm, depending on the plant form, and only then treated with the active compounds which had been suspended or emulsified in water. For this purpose, the test plants were either sown directly and grown in the same containers, or they were first grown separately as seedlings and transplanted into the test containers a few days prior to treatment. The application rate for the post-emergence treatment was 31.3 g of a.s./ha. Depending on the species, the plants were kept at 10-25° C. or 20-35° C. The test period extended over 2 to 4 weeks. During this time, the plants were tended, and their response to the individual treatments was evaluated. The evaluation was carried out using a scale from 0 to 100. 100 means no emergence of the plants, or complete destruction of at least the above-ground parts, and 0 means no damage, or normal course of growth. The plants used in the greenhouse experiments were composed of the following species: [table]

BRAPL = type: in vivo, marmalade grass
Source text: as §1, with “The application rate for the post-emergence treatment was 31.3 g of a.s./ha.” left out

CHEAL = type: in vivo, lamb's-quarters; details: application rate 31.3 g/ha
Source text: as §1

SETFA = type: in vivo, giant foxtail
Source text: as §1, with “The application rate for the post-emergence treatment was 31.3 g of a.s./ha.” left out

Question: Which “herbicidal post-emergence activity against AMARE” value (AMARE) does the source give for `Cn1nc(-c2c(F)cc(Cl)c(N)c2Br)c(Cl)c1OC(F)F` [IVa.1, 2-bromo-4-fluoro-6-chloro-3-(4-chloro-5-difluoromethoxy-1-methyl-1H-pyrazol-3-yl)aniline] here?
Answer: very good

Question: And the “herbicidal post-emergence activity against BRAPL” value (BRAPL; application rate 15.6 g/ha)?
Answer: very good

Question: And the “herbicidal post-emergence activity against BRAPL” value (BRAPL; application rate 31.3 g/ha)?
Answer: very good

Question: What about the “herbicidal post-emergence activity against CHEAL” value (CHEAL) of the same compound?
Answer: very good

Question: What about the “herbicidal post-emergence activity against SETFA” value (SETFA; application rate 15.6 g/ha) of the same compound?
Answer: very good to good

Question: What about the “herbicidal post-emergence activity against SETFA” value (SETFA; application rate 31.3 g/ha) of the same compound?
Answer: very good
